Source: paper PMC10147923, “Pain-causing stinging nettle toxins target TMEM233 to modulate NaV1.7 function” (Nature Communications, 2023)
Where “and” joins values, the source holds several entries; their conditions need not be identical. Identical values can stand only once. Like-named read-outs stand apart in the source and are kept apart here. Positions of bridges follow the written chain, without caps; N, C: chain ends. Residues, ends and D or L forms follow the SMILES beside them.

Experiments:
[1] = test system: hNaV1.6; experiment: Persistent current, HEK293-hNaV1.6/β1; format: cell-based, human; conditions: ExTxA 1 µM; individual cells
[2] = test system: HEK293-NaV1.7 cells; format: cell-based, human; conditions: ExTxA 1 µM; for ΔF/F in NaV1.7 HEK293: mean, n = 3
Experimental: HEK293-NaV1.7 cells were transfected with TMEM233, CRELD1, LMAN2L, MMGT1, RNF121 and STT3B and co-transfected with five plasmids coding for the Glycosylphosphatidylinositol (GPI) complex (GPAA1, PIGK, PIGS, PIGU, PIGT) using Lipofectamine 2000. After 24 h, transfected cells were harvested and plated at a density of 10,000–15,000 cells per well on black-walled 384-well imaging plates. Plated cells were cultured for a further 24 h at 37 °C and 5% CO2. FLIPR (Fluorescent Imaging Plate Reader) Red membrane potential assay dye (Molecular Devices, California, USA) was diluted in physiological salt solution according to the manufacturer’s instructions (PSS, in mM: NaCl 140, glucose 11.5, HEPES 10, KCl 5.9, MgCl2 1.4, NaH2PO4 1.2, NaHCO3 5, CaCl2 1.8, pH 7.4). Growth medium was removed from the plate and replaced with 20 µL of FLIPR Red membrane potential assay dye per well and incubated in the dark at 37 °C for 60 min. […] Fluorescence responses to ExTxA were computed as the maximum change in fluorescence over baseline (ΔF/F0) using ScreenWorks (Molecular Devices, Version 5.1.2.94).

[3] = test system: Drosophila melanogaster; format: in vivo; conditions: injection 0.5 nmol, affected/total
Experimental: To test for insecticidal activity, we injected ExTxA into three-day old Drosophila melanogaster females (average weight 0.875 mg). In total 77 D. melanogaster were used for this study: 52 individuals were each injected with 0.5 nmol (50 nL of a […] solution) ExTxA, while 25 individuals served as control group and were injected with vehicle control (3% acetonitrile, 0.1% bovine serum albumin in water) and scored by a blinded observer.

[4] = biological target: NaV1.7 (Homo sapiens, UniProt Q15858); format: cell-based; conditions: ExTxA 100 nM; individual cells
Sequence of NaV1.7 (Q15858 whole entry): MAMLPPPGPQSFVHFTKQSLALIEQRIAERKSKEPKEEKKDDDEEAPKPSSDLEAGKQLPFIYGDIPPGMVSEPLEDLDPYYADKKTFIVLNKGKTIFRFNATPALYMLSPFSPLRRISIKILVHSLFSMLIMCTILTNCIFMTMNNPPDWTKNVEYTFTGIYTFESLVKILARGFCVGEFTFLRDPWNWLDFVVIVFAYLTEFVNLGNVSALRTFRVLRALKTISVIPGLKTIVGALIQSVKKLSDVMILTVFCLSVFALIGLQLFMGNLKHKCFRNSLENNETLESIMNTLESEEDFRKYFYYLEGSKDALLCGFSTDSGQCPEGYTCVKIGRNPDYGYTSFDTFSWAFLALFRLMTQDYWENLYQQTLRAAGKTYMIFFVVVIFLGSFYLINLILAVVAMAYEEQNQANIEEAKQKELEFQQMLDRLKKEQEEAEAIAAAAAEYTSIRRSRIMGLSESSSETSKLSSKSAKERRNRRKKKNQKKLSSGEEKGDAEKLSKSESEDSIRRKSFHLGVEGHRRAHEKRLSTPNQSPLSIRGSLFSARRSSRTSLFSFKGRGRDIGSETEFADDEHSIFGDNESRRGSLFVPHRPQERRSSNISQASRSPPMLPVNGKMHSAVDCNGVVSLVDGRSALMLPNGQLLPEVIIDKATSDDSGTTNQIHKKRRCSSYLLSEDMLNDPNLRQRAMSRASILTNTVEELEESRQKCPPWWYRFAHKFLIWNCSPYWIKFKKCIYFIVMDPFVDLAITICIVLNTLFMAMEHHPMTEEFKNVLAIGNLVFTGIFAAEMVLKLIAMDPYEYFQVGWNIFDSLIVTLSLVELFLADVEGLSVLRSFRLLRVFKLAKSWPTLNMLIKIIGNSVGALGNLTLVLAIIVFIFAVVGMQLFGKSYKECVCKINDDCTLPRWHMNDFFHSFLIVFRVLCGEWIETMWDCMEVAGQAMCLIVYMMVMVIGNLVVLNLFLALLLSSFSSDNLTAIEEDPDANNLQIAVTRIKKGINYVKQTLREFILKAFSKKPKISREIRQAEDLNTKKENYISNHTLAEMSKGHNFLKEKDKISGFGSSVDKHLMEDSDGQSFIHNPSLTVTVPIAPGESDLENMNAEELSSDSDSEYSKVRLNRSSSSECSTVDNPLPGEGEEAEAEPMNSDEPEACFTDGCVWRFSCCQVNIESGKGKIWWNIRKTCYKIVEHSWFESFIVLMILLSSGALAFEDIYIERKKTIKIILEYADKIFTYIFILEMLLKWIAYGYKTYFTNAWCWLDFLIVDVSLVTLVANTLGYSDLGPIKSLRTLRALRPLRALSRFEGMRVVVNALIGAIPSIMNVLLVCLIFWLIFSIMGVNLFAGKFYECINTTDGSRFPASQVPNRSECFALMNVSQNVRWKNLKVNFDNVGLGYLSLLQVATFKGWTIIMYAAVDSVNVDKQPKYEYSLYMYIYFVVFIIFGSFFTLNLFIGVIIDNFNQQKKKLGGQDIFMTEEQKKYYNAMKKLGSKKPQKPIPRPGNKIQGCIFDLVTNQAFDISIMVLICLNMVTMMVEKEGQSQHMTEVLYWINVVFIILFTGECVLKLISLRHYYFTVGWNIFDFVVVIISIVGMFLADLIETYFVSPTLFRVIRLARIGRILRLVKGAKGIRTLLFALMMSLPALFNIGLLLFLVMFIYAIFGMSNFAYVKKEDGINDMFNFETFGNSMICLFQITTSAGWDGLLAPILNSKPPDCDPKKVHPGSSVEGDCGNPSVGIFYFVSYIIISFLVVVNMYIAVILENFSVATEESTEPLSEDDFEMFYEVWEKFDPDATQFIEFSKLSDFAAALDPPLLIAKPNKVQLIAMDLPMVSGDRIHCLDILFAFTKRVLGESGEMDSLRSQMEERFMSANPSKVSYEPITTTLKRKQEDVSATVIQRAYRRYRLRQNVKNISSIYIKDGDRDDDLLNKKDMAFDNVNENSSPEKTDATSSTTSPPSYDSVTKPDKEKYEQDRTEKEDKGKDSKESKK
Sequence of NaV1.7 (Q07699 19-218, further chain): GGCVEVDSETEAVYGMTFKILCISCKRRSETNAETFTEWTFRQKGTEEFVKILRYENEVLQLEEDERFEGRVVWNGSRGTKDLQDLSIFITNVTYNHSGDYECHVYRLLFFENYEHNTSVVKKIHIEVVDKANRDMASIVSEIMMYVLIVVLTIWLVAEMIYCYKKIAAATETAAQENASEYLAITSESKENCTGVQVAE

[5] = test system: TE-671 cells, TMEM233 KO; format: cell-based; conditions: ExTxA 1 µM
[6] = test system: NaV1.7 endogenously expressed in TE-671 cells; experiment: Persistent NaV current, TE-671 cells (automated patch clamp); format: cell-based
[7] = test system: hNaV1.7/TMEM233; experiment: Persistent current, CHO hNaV1.7/TMEM233; format: cell-based, human; conditions: ExTxA 1 µM; hNaV1.7/TMEM233; mean ± SEM, n = 16
[8] = test system: hNaV1.7; experiment: Persistent current, Xenopus oocytes expressing hNaV1.7 (two-electrode voltage clamp); format: cell-based, human; conditions: ExTxA 1 µM
Experimental: Human NaV1.7 and TMEM233 genes cloned into pcDNA3.1 plasmid were linearized with NotI restriction enzyme and used as template for cRNA synthesis using T7 polymerase (mMessage mMachine Kit; Life Technologies). Stage V/VI oocytes were injected with 5–20 ng total RNA, then incubated at 17 °C for 1–3 days in 50% Leibovitz’s L-15 medium (Gibco), supplemented with 25 µg/mL gentamicin, 25 µg/mL streptomycin, and 2.5% fetal horse serum. Two-electrode voltage clamp (Axoclamp 900 A amplifier; Axon Instruments) were performed at room temperature in ND96 solution (in mM: 96 NaCl, 2 KCl, 1 MgCl2, 1.8 CaCl2, 5 HEPES; pH 7.4 with NaOH) with a ∼40 μL recording chamber. In experiments where ExTxA was added, solutions were supplemented with 0.05% fatty-acid free bovine serum albumin. Borosilicate glass microelectrodes had resistances of 0.2–0.8 MΩ when backfilled with 3 M KCl. Data were digitized at 20 kHz and filtered at 2 kHz using pCLAMP 11 software (Digidata 1550B; Axon Instruments).
ExTxA activity was assayed at 1 µM, analyzing the current from a 50 ms step to −10 mV every 10 s, from a holding volage of −80 mV. For all other voltage protocols, oocytes were held at −90 mV. Activation curves were obtained by measuring peak currents during steps from −100 mV to +60 mV in +10 mV increments applied every 10 s, with G/Gmax plot between −80 mV and +10 mV. […]

[9] = test system: hNaV1.7/β1; experiment: Persistent current, CHO hNaV1.7/β1; format: cell-based, human; conditions: ExTxA 1 µM, mean, n = 11
[10] = test system: NaV1.8; format: cell-based, mouse
[11] = test system: NaV currents in F11 cells; experiment: Persistent current, F11 cells; format: cell-based; conditions: ExTxA 1 µM; individual cells
[12] = test system: wild-type C57BL/6 mice; conditions: cited from earlier work
[13] = test system: total NaV current in wild-type DRG neurons; experiment: Persistent NaV current, wild-type littermate DRG neurons; format: cell-based, mouse; conditions: ExTxA 30 nM; wildtype; mean ± SEM, n = 6

## CC[C@H](C)[C@@H]1NC(=O)[C@H](CCCNC(=N)N)NC(=O)[C@H](Cc2ccccc2)NC(=O)[C@H](CC(C)C)NC(=O)[C@H](CO)NC(=O)[C@@H]2CSSC[C@@H]3NC(=O)[C@H]([C@@H](C)O)NC(=O)[C@H](CSSC[C@H](NC(=O)[C@H](CCCNC(=N)N)NC(=O)[C@@H]4CCCN4C(=O)[C@@H](N)CC(C)C)C(=O)N[C@@H](CC(=O)O)C(=O)N[C@@H](CO)C(=O)N4CCC[C@H]4C(=O)N[C@@H](Cc4ccccc4)C(=O)N2)NC(=O)[C@H](CCCCN)NC(=O)[C@H](CC(=O)O)NC(=O)CNC(=O)[C@H](CSSC[C@@H](C(=O)N[C@H](C(=O)N2CCC[C@H]2C(=O)N[C@@H](CC(=O)O)C(=O)N[C@H](C(=O)O)C(C)C)C(C)C)NC(=O)[C@H](CC(C)C)NC(=O)CNC(=O)[C@H](Cc2ccccc2)NC(=O)[C@H]([C@@H](C)CC)NC(=O)[C@@H]2CCCN2C(=O)[C@H](CC(C)C)NC(=O)[C@@H]2CCCN2C(=O)[C@H](C(C)C)NC3=O)NC(=O)[C@H](CC(C)C)NC(=O)CNC1=O [ExTxA, excelsatoxin A] (H-LPRCDSPFCSLFRIGLCGDKCTCVPLPIFGLCVPDV-OH; disulfide 4-21, 9-23, 17-32)
[1]
  persistent current (I40 ms/Ipeak): -0.07037 and 0.003531 and 0.01691 and 0.001263 and 0.000702 and -0.00068 and -0.03041 and 0.01768
[2]; Control (untransfected NaV1.7)
  ΔF/F in NaV1.7 HEK293: 0.016 ± 0.013 and 0.01598
[2]; GPAA1+PIG K, S, T, U, replicate 1
  DF/F: -0.0084
[2]; GPAA1+PIG K, S, T, U, replicate 2
  DF/F: -0.00023
[2]; GPAA1+PIG K, S, T, U, replicate 3
  DF/F: -0.01147
[2]; Lman2L
  ΔF/F in NaV1.7 HEK293: 0.014 ± 0.0048 and 0.01413
[2]; Lman2L, replicate 1
  DF/F: 0.02361
[2]; Lman2L, replicate 2
  DF/F: 0.01087
[2]; Lman2L, replicate 3
  DF/F: 0.007914
[2]; Mmgt1, replicate 1
  DF/F: -0.00761
[2]; Mmgt1, replicate 2
  DF/F: -0.00711
[2]; Mmgt1, replicate 3
  DF/F: -0.00296
[2]; RNF121, replicate 1
  DF/F: -0.01721
[2]; RNF121, replicate 2
  DF/F: -0.01119
[2]; RNF121, replicate 3
  DF/F: 0.007423
[2]; Stt3b
  ΔF/F in NaV1.7 HEK293: 0.013 ± 0.00098 and 0.01262
[2]; Stt3b, replicate 1
  DF/F: 0.01077
[2]; Stt3b, replicate 2
  DF/F: 0.013
[2]; Stt3b, replicate 3
  DF/F: 0.01408
[2]; Untransfected Nav1.7, replicate 1
  DF/F: 0.03099
[2]; Untransfected Nav1.7, replicate 2
  DF/F: -0.01092
[2]; Untransfected Nav1.7, replicate 3
  DF/F: 0.02788
[3]; after 15 min, control 1/25
  paralysis: 2/52
[3]; after 2 h, control 0/25
  death: 1/52
[4]
  hiPSC-derived sensory neurons persistent current (I40 ms/Ipeak): 0.1753 and 0.2081 and 0.0959 and 0.1857 and 0.092
[5]
  Difference between means (B - A), TMEM233-/- minus wildtype: -0.7661 ± 0.02026
[5]; TMEM233-/-, individual cells
  persistent current (I40 ms/Ipeak): 0.1031 and 0.03299 and 0.02248 and 0.06663 and 0.03142 and 0.02781
[6]
  ExTxA-induced persistent current (I40 ms/Ipeak; nA): 0.8135
  persistent current (I40 ms/Ipeak): 0.8735 and 0.8209 and 0.7837 and 0.8022 and 0.7553 and 0.8064 and 0.8529
[6]; ExTxA 100 nM
  Mean Diff. of persistent current, Buffer vs. ExTxA: -0.2502
[6]; ExTxA 100 nM, individual cells
  TE-671 persistent current (I40 ms/Ipeak): 0.226 and 0.2237 and 0.255 and 0.3482 and 0.2794 and 0.2574 and 0.2313 and 0.3524
[6]; ExTxA 100 nM, mean, n = 8
  TE-671 persistent current (I40 ms/Ipeak): 0.272 ± 0.018 and 0.2717
[6]; ExTxA 1 µM, individual cells
  persistent current (I40 ms/Ipeak): 0.6558 and 0.8078 and 0.6143 and 0.6966 and 0.7266 and 0.5751 and 0.7653 and 0.7674 and 0.8038 and 0.7341 and 0.767
[6]; ExTxA 1 µM, mean
  Δ persistent current (I40 ms/Ipeak; buffer cf. ExTxA): 0.719 ± 0.0230 and 0.7194
[6]; ExTxA 1 µM, wildtype TE-671 (Fig. 3d), mean, n = 7
  ExTxA-induced persistent current (I40 ms/Ipeak; nA): 0.81 ± 0.015
[7]
  CHO cells persistent current (I40 ms): -2.010 ± 0.277 nA
[8]; hNaV1.7 alone, mean ± SEM, n = 6
  Xenopus oocyte persistent current (I40 ms/Ipeak): 0.081 ± 0.012
[8]; individual oocytes
  persistent current (I40 ms/Ipeak): 0.01056 and 0.002122 and 0.005805 and 0.01324 and 0.01132 and 0.02838 and 0.05496 and 0.01837 and -0.00648 and -0.01247 and 0.02865
[9]
  Δ persistent current (I40 ms/Ipeak) in CHO hNaV1.7: 0.0001 ± 0.001 and 0.0001365
[10]
  DRG NaV1.8 Δ persistent current (I40 ms/Ipeak): 0.050 ± 0.015
[11]
  persistent current (I40 ms/Ipeak): 0.004557 and -0.00296 and -0.00917 and -0.00017 and -0.00072 and 0.02041
[12]
  pain behavior after intraplantar administration in mice: elicits spontaneous pain behaviors and an axon reflex flare following intraplantar administration in mice
[13]
  ExTxA-induced persistent current (I40ms/Ipeak; nA) in DRG neurons: 0.573 ± 0.086
